# Measurements: US12653809B2, “Urea, amide, and substituted heteroaryl compounds for CBL-B inhibition” (Nurix Therapeutics, Inc., priority 2019, dated 2026)
# Read-outs that look alike come from different tables or passages of the source.
# Target: T1, Cbl-b (truncated variant, UniProt number Q13191) (Homo sapiens, UniProt Q13191)
# T1 construct: made in house
# Test: Cbl-b activity assay (TR-FRET, interaction of Cbl-b with UbcH5B-Ub)
# Assay type: biochemical
# Source text: As described in Biological Example 1A, a Cbl-b activity assay (Cbl-b inhibition assay) used to measure the IC50 values for Cbl-b inhibition uses a mixture comprising candidate compound, Cbl-b (truncated, with an Avitag, and biotinylated), a fluorescently-labeled E2 enzyme UbcH5B labelled with ubiquitin conjugated to BODIPY-fluorescein (UbcH5B-Ub), streptavidin-terbium, and assay buffer. In one embodiment, the Cbl-b activity assay (Cbl-b inhibition assay) used to measure IC50 for inhibition of Cbl-b uses the conditions described in Biological Example 1A with 12 nM Cbl-b. […] In another embodiment, the Cbl-b activity assay (Cbl-b inhibition assay) used to measure IC50 for inhibition of Cbl-b uses the conditions described in Biological Example 1B, with candidate compound, 0.125 nM Cbl-b (truncated, with an avitag, and biotinylated), fluorescently labelled inhibitor probe, and assay buffer. Displacement of the inhibitor probe indicates Cbl-b activity.
# Candidate compounds isolated from screening assays were evaluated for their ability to bind and inhibit Cbl-b, an E3 ubiquitin-protein ligase.
# The ability of candidate compounds to inhibit Cbl-b activity was measured by monitoring the interaction of Cbl-b with UbcH5B-Ub in the presence of the candidate compound. A truncated variant of Cbl-b (UniProt number Q13191; SEQ ID NO:1) containing an Avitag at its N-terminus was co-expressed with BirA biotin ligase and purified using a standard protocol (see Dou et al., Nature Structural and Molecular Biology 8: 982-987, 2013; Avidity LLC).
# Fluorescently labeled UbcH5B-Ub was prepared by conjugating ubiquitin (Ub), labeled at its N-terminus with Bodipy-Fluorescein, to UbcH5B, an E2 enzyme, harboring a cysteine to lysine mutation at position 85. This mutation is similar to a mutation that was previously reported (see Dou et al., Nature Structural and Molecular Biology 8: 982-987, 2013). Cbl-b activity assays were performed in a 384-well plate at room temperature in a 10 μL reaction volume by pre-incubating 12 nM Cbl-b (final concentration) in an assay buffer containing 50 mM HEPES pH 7.0, 100 mM NaCl, 0.01% Triton X-100, 0.01% BSA, and 1 mM DTT in the presence of a candidate compound in 1% DMSO (final concentration, High Conditions) for one hour. After incubation in the presence of the candidate compound, the plate was incubated for an additional 1.5 hours in the presence of 60 nM Src kinase with 1 mM ATP and 5 mM MgCl2 (final concentrations). Alternatively, compounds were tested as described above with assay buffer containing 50 mM NaCl instead of 100 mM NaCl and 30 nM Src kinase instead of 60 nM Src kinase (Low Conditions). Src kinase was prepared as previously described (see Kobashigawa et al., Proc Natl Acad Sci USA, 108: 20579-20584, 2011). […] The plate was incubated for one hour. Following the one hour incubation, the plates were read for TR-FRET signal at 520/620 nm using Envision plate reader (Perkin Elmer). The presence of a FRET signal that indicated Cbl-b was not inhibited by the compound candidate. The absence of a FRET signal indicated Cbl-b was inhibited by the compound candidate and was therefore a Cbl-b inhibitor.
# The resulting data for the Cbl-b activity assays were analyzed using standard methods to report the IC50 values of the tested compounds (Tables 3-4). The resulting data for the Cbl-b binding assay was solvent corrected and double-referenced prior to analysis. All data were globally fit to a steady-state affinity and kinetic binding model where applicable. Compounds were ranked into bins A through D as follows for IC50: A indicates <0.1 μM, B indicates 0.1 μM≤IC50<1 μM, C indicates 1 μM≤IC50<5 μM, and D indicates 5 μM≤IC50.
# [1] = high conditions: 100 mM NaCl, 60 nM Src kinase, 12 nM Cbl-b, read-out: Cbl-b activity IC50
# [2] = Biological Example 1A, low or high conditions not stated, read-out: IC50 values in the Cbl-b inhibition assay of Biological Example 1A
# [3] = low conditions: 50 mM NaCl, 30 nM Src kinase, 12 nM Cbl-b, read-out: Cbl-b activity IC50
# T1 sequence (Q13191 36-427): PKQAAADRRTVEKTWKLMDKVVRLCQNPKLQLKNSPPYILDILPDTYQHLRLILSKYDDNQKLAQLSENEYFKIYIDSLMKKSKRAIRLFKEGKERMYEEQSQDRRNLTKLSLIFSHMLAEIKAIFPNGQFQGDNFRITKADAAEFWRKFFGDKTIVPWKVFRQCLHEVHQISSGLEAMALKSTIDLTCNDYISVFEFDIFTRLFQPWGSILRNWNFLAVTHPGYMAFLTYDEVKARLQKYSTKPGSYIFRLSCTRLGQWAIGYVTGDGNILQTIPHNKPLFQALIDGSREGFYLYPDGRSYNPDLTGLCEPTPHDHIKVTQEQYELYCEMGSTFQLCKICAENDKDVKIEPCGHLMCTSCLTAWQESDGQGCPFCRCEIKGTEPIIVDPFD
SMILES,IC50 [1],IC50 [2],IC50 [3]
"Cn1cnnc1[C@@H]1C[C@@H]1c1cccc(NC(=O)N2CCOc3cccnc32)c1 [Example 25, N-(3-((1S,2R)-2-(4-methyl-4H-1,2,4-triazol-3-yl)cyclopropyl)phenyl)-2,3-dihydro-4H-pyrido[3,2-b][1,4]oxazine-4-carboxamide]",100 to 1000 nM,,
"Cn1cnnc1CC1(c2cccc(NC(=O)N3CC4(CCNC4)Oc4cccnc43)c2)COC1 (centres unmarked) [Example 26, N-(3-(3-((4-methyl-4H-1,2,4-triazol-3-yl)methyl)oxetan-3-yl)phenyl)spiro[pyrido[3,2-b][1,4]oxazine-2,3′-pyrrolidine]-4(3H)-carboxamide]",< 100 nM,,
"Cn1cnnc1CC1(c2cccc(NC(=O)N3CC4(CNC4)Oc4cccnc43)c2)COC1 [Example 27, N-(3-(3-((4-methyl-4H-1,2,4-triazol-3-yl)methyl)oxetan-3-yl)phenyl)spiro[azetidine-3,2′-pyrido[3,2-b][1,4]oxazine]-4′(3′H)-carboxamide]",< 100 nM,,
"CN1CC2(C1)CN(C(=O)Nc1cccc(C3(Cc4nncn4C)COC3)c1)c1ncccc1O2 [Example 29, 1-methyl-N-(3-(3-((4-methyl-4H-1,2,4-triazol-3-yl)methyl)oxetan-3-yl)phenyl)spiro[azetidine-3,2′-pyrido[3,2-b][1,4]oxazine]-4′(3′H)-carboxamide]",< 100 nM,,
"Cn1cnnc1CC1(c2cccc(NC(=O)N3CC4(CCNCC4)c4cccnc43)c2)COC1 [Example 30, N-(3-(3-((4-methyl-4H-1,2,4-triazol-3-yl)methyl)oxetan-3-yl)phenyl)spiro[piperidine-4,3′-pyrrolo[2,3-b]pyridine]-1′(2′H)-carboxamide]",< 100 nM,,
"CN1CCC2(CC1)CN(C(=O)Nc1cccc(C3(Cc4nncn4C)COC3)c1)c1ncccc12 [Example 31, 1-methyl-N-(3-(3-((4-methyl-4H-1,2,4-triazol-3-yl)methyl)oxetan-3-yl)phenyl)spiro[piperidine-4,3′-pyrrolo[2,3-b]pyridine]-1′(2′H)-carboxamide]",100 to 1000 nM,100 to 1000 nM,
"Cn1cnnc1CC1(c2cccc(N3CC4C(C(F)(F)F)CCN4C3=O)c2)COC1 (centres unmarked) [Example 32, 2-(3-(3-((4-methyl-4H-1,2,4-triazol-3-yl)methyl)oxetan-3-yl)phenyl)-7-(trifluoromethyl)hexahydro-3H-pyrrolo[1,2-c]imidazol-3-one]",1000 to 5000 nM,1000 to 5000 nM,

# Next, values leading:
IC50 [1],IC50 [2],IC50 [3],SMILES
< 100 nM,,,"Cn1cnnc1C(F)(F)[C@](C)(F)c1cccc(NC(=O)N2CC3(CNC3)Oc3cccnc32)c1 [Example 28, (R)—N-(3-(1,1,2-trifluoro-1-(4-methyl-4H-1,2,4-triazol-3-yl)propan-2-yl)phenyl)spiro[azetidine-3,2′-pyrido[3,2-b][1,4]oxazine]-4′(3′H)-carboxamide]"
,,≥ 5000 nM,"CC(Sc1nncn1C)c1cccc(C(=O)Nc2ccccc2)c1 (centres unmarked) [Example 33, 3-(1-((4-methyl-4H-1,2,4-triazol-3-yl)thio)ethyl)-N-phenylbenzamide]"
,,≥ 5000 nM,"CC(Sc1nncn1C)c1cccc(C(=O)Nc2ccccn2)c1 (centres unmarked) [Example 34, 3-(1-((4-methyl-4H-1,2,4-triazol-3-yl)thio)ethyl)-N-(pyridin-2-yl)benzamide]"
≥ 5000 nM,,,"C[C@H](Sc1nncn1C)c1cccc(C(=O)Nc2ccc3ccccc3n2)c1 [Example 35, (S)-3-(1-((4-methyl-4H-1,2,4-triazol-3-yl)thio)ethyl)-N-(quinolin-2-yl)benzamide]"
1000 to 5000 nM,1000 to 5000 nM,,"C[C@H](Sc1nncn1C)c1cccc(C(=O)Nc2cc(C(F)(F)F)ccn2)c1 [Example 36, (S)-3-(1-((4-methyl-4H-1,2,4-triazol-3-yl)thio)ethyl)-N-(4-(trifluoromethyl)pyridin-2-yl)benzamide]"
≥ 5000 nM,≥ 5000 nM,,"Cn1cnnc1CC1(c2cccc(C(=O)Nc3cccc(C4CC4)n3)c2)COC1 [Example 37, N-(6-cyclopropylpyridin-2-yl)-3-(3-((4-methyl-4H-1,2,4-triazol-3-yl)methyl)oxetan-3-yl)benzamide]"
